Data published in BindingDB's records for doi:10.1016/s0223-5234(00)01171-5 (Clinical Research Institute of Montreal, 2000).
“And” between values parts separate entries of the source, which are not always exact repeats. Equal values may be shown once.

How the values were obtained:
[1] = biological target: Kappa-type opioid receptor (Cavia porcellus, UniProt P41144)
Mu-type opioid receptor = Mu-type opioid receptor (Cavia porcellus, UniProt P97266)
[2] = biological target: Delta-type opioid receptor (Mus musculus, UniProt P32300)
Chain of Delta-type opioid receptor (P32300 whole entry): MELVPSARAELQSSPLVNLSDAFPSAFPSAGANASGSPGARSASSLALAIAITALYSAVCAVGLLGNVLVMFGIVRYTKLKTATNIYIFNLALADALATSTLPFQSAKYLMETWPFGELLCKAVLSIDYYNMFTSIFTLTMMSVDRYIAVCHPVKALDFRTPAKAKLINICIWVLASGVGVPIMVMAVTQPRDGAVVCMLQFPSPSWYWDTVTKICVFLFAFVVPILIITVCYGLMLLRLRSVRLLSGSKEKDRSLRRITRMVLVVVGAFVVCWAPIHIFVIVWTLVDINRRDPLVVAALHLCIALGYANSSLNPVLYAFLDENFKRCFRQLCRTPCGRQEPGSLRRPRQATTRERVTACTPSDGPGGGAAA

Chain of Kappa-type opioid receptor (P41144 whole entry): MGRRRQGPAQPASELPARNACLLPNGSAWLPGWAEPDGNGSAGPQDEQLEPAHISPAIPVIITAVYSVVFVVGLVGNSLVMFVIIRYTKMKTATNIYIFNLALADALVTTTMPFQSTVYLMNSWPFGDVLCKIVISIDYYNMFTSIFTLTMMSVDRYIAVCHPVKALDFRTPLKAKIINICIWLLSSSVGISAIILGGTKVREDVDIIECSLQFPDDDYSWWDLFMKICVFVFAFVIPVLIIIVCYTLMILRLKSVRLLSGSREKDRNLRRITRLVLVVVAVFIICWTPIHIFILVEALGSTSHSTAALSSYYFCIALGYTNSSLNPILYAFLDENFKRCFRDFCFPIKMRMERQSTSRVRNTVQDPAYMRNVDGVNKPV
Chain of Mu-type opioid receptor (P97266 whole entry): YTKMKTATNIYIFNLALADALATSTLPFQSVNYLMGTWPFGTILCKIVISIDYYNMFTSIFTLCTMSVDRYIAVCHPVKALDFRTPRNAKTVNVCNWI

SMILES	Ki [1] [nM]	Ki (Mu-type opioid receptor) [nM]	Ki [2]
Cc1cc(O)cc(C)c1C[C@H](N)C(=O)N[C@H](CCCN=C(N)N)C(=O)N[C@@H](Cc1ccccc1)C(=O)N[C@@H](CCCN)C(N)=O [Dmt-d-Arg-Phe-Orn-NH2]	26.3	0.151	1240 nM
CN[C@@H](Cc1c(C)cc(O)cc1C)C(=O)N[C@H](CCCN=C(N)N)C(=O)N[C@@H](Cc1ccccc1)C(=O)N[C@@H](CCCCN)C(N)=O [Tmt-D-Arg-Phe-Lys-NH2]	46.1	0.192	543 nM
Cc1cc(O)ccc1C[C@H](N)C(=O)N[C@H](CCCN=C(N)N)C(=O)N[C@@H](Cc1ccccc1)C(=O)N[C@@H](CCCCN)C(N)=O [H-Hmt-D-Arg-Phe-Lys-NH2 II]			> 10000 nM and 2320 nM
NCCCC[C@H](NC(=O)[C@H](Cc1ccccc1)NC(=O)[C@@H](CCCN=C(N)N)NC(=O)[C@@H](N)Cc1ccc(O)cc1)C(N)=O [NSC_122222]	4230	1.69	
Cc1cc(O)cc(C)c1C[C@H](N)C(=O)N[C@H](CCCN=C(N)N)C(=O)N[C@@H](Cc1ccccc1)C(=O)N[C@@H](CCN)C(N)=O [H-Dmt-D-Arg-Phe-A2bu-NH2]	47.5	0.803	6130 nM
